From patent US20090220614A1, “Thermo-Responsive Block Co-Polymers, and Use Thereof” (The Trustees of the University of Pennsylvania, priority 2005, published 2009) come the findings set out here.

The series can be described thus: Release of doxorubicin from OPA215 vesicles, dialysis cassette in PBS, 485 nm absorption. It counts as physicochemical. The note with it: 37° C., within 2 hours.

Protocol: The Dox-loaded vesicles were centrifuged at 40° C. to remove excess free Dox and resuspended into a 0.320 osM PBS solution at ° C. Then, 3 ml of the aforementioned solution was injected into a dialysis cassette (molecular weight cut-off 3000 g mol^−1), and dialyzed against the PBS solution at 37° C. for 6 hours to ensure complete removal of any free Dox outside of the vesicles. After the initial aliquot was taken, the cassette was immersed in a 300 ml PBS solution at 37° and 27° C., respectively, for monitoring the 485 nm absorption peak of Dox using UV-vis spectrometry. At time intervals, a 3 ml aliquot of the PBS solution was sampled from the external solution of the dialysis cassette.
To study thermally triggered release of Dox from the OPA215 vesicles in PBS solutions, vesicles and control samples were entrapped in dialysis cassettes and sampled in external PBS solutions for the 485 nm absorption peak of Dox at different time intervals (FIG. 9).

Turning to `COc1cccc2c1C(=O)c1c(O)c3c(c(O)c1C2=O)C[C@@](O)(C(=O)CO)C[C@@H]3O[C@H]1C[C@H](N)[C@H](O)[C@H](C)O1` [free Dox, Doxorubicin], the “loss of Dox during dialysis” value is recorded as more than 70%.
